Reference: US12077503B2, “Substituted cyclic amides and their use as herbicides” (FMC CORPORATION, priority 2015, dated 2024)

Assays:
Format in all cases: in vivo
[1] = test system: ryegrass, Italian (Italian ryegrass, Lolium multiflorum); assay: Test A postemergence; details: Lolium multiflorum, post-emergence, 240 h, 125 g ai/ha, postemergence, visual injury vs untreated controls after approx. 10 d; 0 = no effect, 100 = complete control; read-out: Ryegrass, Italian plant response rating (0 to 100 scale)
Procedure, shortened: (§1)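 Greenhouse, ~10 d after spray; visual injury vs untreated controls, 0 = no effect, 100 = complete control. Preemergence: directed soil spray over planted seeds. Postemergence: plants 2–10 cm, 1–2 leaf stage. Loam/sand blend. Compound in non-phytotoxic solvent with surfactant.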

[2] = test system: corn (Zea mays); assay: Test A postemergence; details: Zea mays, post-emergence, 240 h
Procedure, shortened: as §1

[3] = test system: giant foxtail (Setaria faberii); assay: Test A postemergence; details: Setaria faberi, post-emergence, 240 h
Procedure, shortened: as §1

[4] = test system: wheat (Triticum aestivum); assay: Test A postemergence; details: Triticum aestivum, post-emergence, 240 h, 125 g ai/ha, postemergence, visual injury vs untreated controls after approx. 10 d; 0 = no effect, 100 = complete control; read-out: Wheat plant response rating (0 to 100 scale)
Procedure, shortened: as §1

[5] = test system: Kochia (Kochia scoparia); assay: Test A postemergence; details: Bassia scoparia, post-emergence, 240 h
Procedure, shortened: as §1

[6] = test system: blackgrass (Alopecurus myosuroides); assay: Test A postemergence; details: Alopecurus myosuroides, post-emergence, 240 h
Procedure, shortened: as §1

[7] = test system: ragweed (common ragweed, Ambrosia elatior); assay: Test A postemergence; details: Ambrosia artemisiifolia, post-emergence, 240 h, 125 g ai/ha, postemergence, visual injury vs untreated controls after approx. 10 d; 0 = no effect, 100 = complete control; read-out: Ragweed plant response rating (0 to 100 scale)
Procedure, shortened: as §1

[8] = test system: barnyardgrass (Echinochloa crus-galli); assay: Test A postemergence; details: Echinochloa crus-galli, post-emergence, 240 h
Procedure, shortened: as §1

[9] = test system: Galium (catchweed bedstraw, Galium aparine); assay: Test A postemergence; details: Galium, post-emergence, 240 h
Procedure, shortened: as §1

[10] = test system: pigweed (Amaranthus retroflexus); assay: Test A postemergence; details: Amaranthus retroflexus, post-emergence, 240 h, 125 g ai/ha, postemergence, visual injury vs untreated controls after approx. 10 d; 0 = no effect, 100 = complete control; read-out: Pigweed plant response rating (0 to 100 scale)
Procedure, shortened: as §1

[11] = test system: ryegrass, Italian (Italian ryegrass, Lolium multiflorum); assay: Test A preemergence; details: Lolium multiflorum, pre-emergence, 240 h, 0 to 100 scale where 0 is no effect and 100 is complete control, read-out: Ryegrass, Italian plant response rating
Procedure, shortened: as §1

[12] = test system: giant foxtail (Setaria faberii); assay: Test A preemergence; details: Setaria faberi, pre-emergence, 240 h, 0 to 100 scale where 0 is no effect and 100 is complete control, read-out: Foxtail, Giant plant response rating
Procedure, shortened: as §1

[13] = test system: Kochia (Kochia scoparia); assay: Test A preemergence; details: Bassia scoparia, pre-emergence, 240 h, 0 to 100 scale where 0 is no effect and 100 is complete control, read-out: Kochia plant response rating
Procedure, shortened: as §1

[14] = test system: ragweed (common ragweed, Ambrosia elatior); assay: Test A preemergence; details: Ambrosia artemisiifolia, pre-emergence, 240 h, 0 to 100 scale where 0 is no effect and 100 is complete control, read-out: Ragweed plant response rating
Procedure, shortened: as §1

[15] = test system: barnyardgrass (Echinochloa crus-galli); assay: Test A preemergence; details: Echinochloa crus-galli, pre-emergence, 240 h, 0 to 100 scale where 0 is no effect and 100 is complete control, read-out: Barnyardgrass plant response rating
Procedure, shortened: as §1

[16] = test system: pigweed (Amaranthus retroflexus); assay: Test A preemergence; details: Amaranthus retroflexus, pre-emergence, 240 h, 0 to 100 scale where 0 is no effect and 100 is complete control, read-out: Pigweed plant response rating
[17] = test system: ducksalad (Heteranthera limosa); assay: Test B flooded paddy test; details: Heteranthera limosa, 250 g ai/ha, Flood; 0 to 100 scale where 0 is no effect and 100 is complete control; read-out: Ducksalad plant response rating
Procedure, shortened: (§2)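 Flooding to 3 cm over soil accompanied treatment, which consisted of adding compound to the standing water around 2-leaf plants; depth was then maintained. Visual assessment versus controls followed at 13 to 15 d (scale 0–100, 0 meaning no effect).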

[18] = test system: barnyardgrass (Echinochloa crus-galli); assay: Test B flooded paddy test; details: Echinochloa crus-galli, 250 g ai/ha, Flood; 0 to 100 scale where 0 is no effect and 100 is complete control; read-out: Barnyardgrass plant response rating
Procedure, shortened: as §2

[19] = test system: sedge, umbrella (small-flower umbrella sedge, Cyperus difformis); assay: Test B flooded paddy test; details: Cyperus difformis, 250 g ai/ha, Flood; 0 to 100 scale where 0 is no effect and 100 is complete control; read-out: Sedge, Umbrella plant response rating
Procedure, shortened: as §2

[20] = test system: rice (Oryra sativa); assay: Test B flooded paddy test; details: Oryza sativa, 250 g ai/ha, Flood; 0 to 100 scale where 0 is no effect and 100 is complete control; read-out: Rice plant response rating
Procedure, shortened: as §2

[21] = 125 g ai/ha, preemergence, visual injury rating, approximately 10 d

`COc1ccc(C(F)(F)F)cc1[C@H]1CN(C)C(=O)[C@@H]1C(=O)Nc1ccccc1F` [Compound 1183] showed a pest or weed control at 125 g/ha [1] of 50%, a plant injury at 125 g/ha ([2]; 125 g ai/ha, postemergence, visual injury vs untreated controls after approx. 10 d, 0 = no effect, 100 = complete control, read-out: Corn plant response rating (0 to 100 scale)) of 60% and a Corn plant response rating (crop injury, 0 = no effect, 100 = complete kill) at 31 g/ha ([2]; Postemergence, 31 g ai/ha, visual injury after approx. 10 d, 0 to 100 scale, 0 no effect, 100 complete control) of 30%. For the same molecule, the pest or weed control at 125 g/ha ([3]; 125 g ai/ha, postemergence, visual injury vs untreated controls after approx. 10 d, 0 = no effect, 100 = complete control, read-out: Foxtail, Giant plant response rating (0 to 100 scale)) was 80%, the pest or weed control at 31 g/ha ([3]; Postemergence, 31 g ai/ha, visual injury after approx. 10 d, 0 to 100 scale, 0 no effect, 100 complete control, read-out: Plant response rating, Foxtail, Giant) was 70% and the plant injury at 125 g/ha [4] was 50%. It also gave a pest or weed control at 125 g/ha ([5]; 125 g ai/ha, postemergence, visual injury vs untreated controls after approx. 10 d, 0 = no effect, 100 = complete control, read-out: Kochia plant response rating (0 to 100 scale)) of 0%, a pest or weed control at 31 g/ha ([5]; Postemergence, 31 g ai/ha, visual injury after approx. 10 d, 0 to 100 scale, 0 no effect, 100 complete control, read-out: Plant response rating, Kochia) of 0% and a pest or weed control at 125 g/ha ([6]; 125 g ai/ha, postemergence, visual injury vs untreated controls after approx. 10 d, 0 = no effect, 100 = complete control, read-out: Blackgrass plant response rating (0 to 100 scale)) of 50%. It also gave a pest or weed control at 31 g/ha ([6]; Postemergence, 31 g ai/ha, visual injury after approx. 10 d, 0 to 100 scale, 0 no effect, 100 complete control, read-out: Plant response rating, Blackgrass) of 0%, a pest or weed control at 125 g/ha [7] of 0% and a pest or weed control at 125 g/ha ([8]; 125 g ai/ha, postemergence, visual injury vs untreated controls after approx. 10 d, 0 = no effect, 100 = complete control, read-out: Barnyardgrass plant response rating (0 to 100 scale)) of 90%. For the same molecule, the pest or weed control at 31 g/ha ([8]; Postemergence, 31 g ai/ha, visual injury after approx. 10 d, 0 to 100 scale, 0 no effect, 100 complete control, read-out: Plant response rating, Barnyardgrass) was 80%, the pest or weed control at 125 g/ha ([9]; 125 g ai/ha, postemergence, visual injury vs untreated controls after approx. 10 d, 0 = no effect, 100 = complete control, read-out: Galium plant response rating (0 to 100 scale)) was 0% and the pest or weed control at 31 g/ha ([9]; Postemergence, 31 g ai/ha, visual injury after approx. 10 d, 0 to 100 scale, 0 no effect, 100 complete control, read-out: Plant response rating, Galium) was 0%. It also gave a pest or weed control at 125 g/ha [10] of 0%, a pest or weed control at 31 g/ha ([11]; 31 g ai/ha, Preemergence) of 20% and a pest or weed control at 125 g/ha [11, 21] of 50%. It also gave a pest or weed control at 31 g/ha ([12]; 31 g ai/ha, Preemergence) of 80%, a pest or weed control at 125 g/ha [12, 21] of 90% and a pest or weed control at 31 g/ha ([13]; 31 g ai/ha, Preemergence) of 0%. It also gave a pest or weed control at 125 g/ha [13, 21] of 0%, a pest or weed control at 31 g/ha ([14]; 31 g ai/ha, Preemergence) of 0% and a pest or weed control at 125 g/ha [14, 21] of 0%. For the same molecule, the pest or weed control at 31 g/ha ([15]; 31 g ai/ha, Preemergence) was 90%, the pest or weed control at 125 g/ha [15, 21] was 90% and the pest or weed control at 31 g/ha ([16]; 31 g ai/ha, Preemergence) was 0%. For the same molecule, the pest or weed control at 125 g/ha [16, 21] was 0%, the pest or weed control at 250 g/ha [17] was 95% and the pest or weed control at 250 g/ha [18] was 95%. The pest or weed control at 250 g/ha [19] was 0% and the pest or weed control at 250 g/ha [20] was 10%.
